According to ChEMBL document CHEMBL1201862, “PubChem BioAssay data set” (2004):
Calls of active or inactive are those of the source.

Tests used:
Escherichia coli = assay: microbe, parasite or virus in culture
SUMO-activating enzyme [1] = target: T1, SUMO-activating enzyme (Homo sapiens, UniProt Q9UBT2); assay: inhibitors of in vitro SUMOylation cascade, primary screen, biochemical, HTRF, uHTS (AID 2006); assay type: protein-complex assay
SUMO-activating enzyme [2] = target: T1, SUMO-activating enzyme; assay: SUMOylation inhibitor hit validation, confirmation, SUMOylation inhibitor project, biochemical, AlphaScreen (AID 2018); assay type: functional
[3] = target: Glyceraldehyde-3-phosphate dehydrogenase (Homo sapiens, UniProt P04406)
[4] = cytotoxicity in HEK-293T cells, dose response, cytotoxicity control for BCR NF-kB inhibitor project, luminescence, B-cell screen hits (AID 489021); assay type: functional, cell-based;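 further: HEK-293T cells carrying an NF-kB luciferase reporter; cells exposed to compound for about 14 hours before viability readout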
cells = assay type: functional
[5] = Luminescence Cell-Based Dose Confirmation HTS to Identify Activators of 5'UTR Stem-Loop Driven Alpha-Synuclein mRNA Translation in H4 Neuroglioblastoma Cells. [Related pubchem assays: 1829 (Project Summary), 1814 (Primary HTS)]; assay type: functional
Protein RecA = target: T2, Protein RecA (Mycobacterium tuberculosis, UniProt P9WHJ3); assay: Fluorescence Cell-Free Homogeneous Dose Retest to Identify Inhibitors of RecA-Intein Splicing Activity. [Related pubchem assays (depositor defined):AID2097, AID2223, AID489010, AID492950]; assay type: functional
T2 sequence (P9WHJ3 whole entry): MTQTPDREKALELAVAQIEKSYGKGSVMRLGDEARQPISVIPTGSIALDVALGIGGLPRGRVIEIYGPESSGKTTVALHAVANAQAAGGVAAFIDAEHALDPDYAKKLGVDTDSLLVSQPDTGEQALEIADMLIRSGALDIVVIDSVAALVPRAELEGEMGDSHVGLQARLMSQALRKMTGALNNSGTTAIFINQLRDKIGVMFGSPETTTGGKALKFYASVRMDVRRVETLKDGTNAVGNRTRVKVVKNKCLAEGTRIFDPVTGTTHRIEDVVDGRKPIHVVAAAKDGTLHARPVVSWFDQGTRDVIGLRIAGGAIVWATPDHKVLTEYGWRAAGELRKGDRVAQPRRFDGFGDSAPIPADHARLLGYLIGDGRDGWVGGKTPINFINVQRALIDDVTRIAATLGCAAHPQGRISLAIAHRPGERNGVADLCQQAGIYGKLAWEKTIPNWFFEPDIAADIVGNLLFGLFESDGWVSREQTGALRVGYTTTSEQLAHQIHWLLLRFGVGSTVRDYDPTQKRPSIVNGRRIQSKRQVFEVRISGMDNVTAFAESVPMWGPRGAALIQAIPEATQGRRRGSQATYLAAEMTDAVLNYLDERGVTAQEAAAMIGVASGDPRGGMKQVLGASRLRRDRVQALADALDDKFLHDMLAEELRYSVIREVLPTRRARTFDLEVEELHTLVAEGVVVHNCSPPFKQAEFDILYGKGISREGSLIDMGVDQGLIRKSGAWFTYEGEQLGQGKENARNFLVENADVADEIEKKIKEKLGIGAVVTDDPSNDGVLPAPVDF

H4 = assay: Luminescence Cell-Based Dose Response HTS to Identify Activators of 5'UTR Stem-Loop Driven Prion Protein mRNA Translation in H4 Neuroglioblastoma Cells. [Related pubchem assays: 1829 (Project Summary), 1814 (Primary HTS)]; assay type: functional; conditions: Homo sapiens
[6] = Luminescence Cell-Based Dose Response HTS to Identify Activators of Luciferase Translation or Activity in H4 […] Cells. [Related pubchem assays: 1829 (Project Summary), 1814 (Primary HTS)]; assay type: functional
[7] = target: T3, Replicative DNA helicase DnaB (Mycobacterium tuberculosis, UniProt P9WMR3); assay: DnaB intein splicing inhibitors, dose response, biochemical, cell-free fluorescence (AID 449749); assay type: functional
T3 sequence (P9WMR3 whole entry): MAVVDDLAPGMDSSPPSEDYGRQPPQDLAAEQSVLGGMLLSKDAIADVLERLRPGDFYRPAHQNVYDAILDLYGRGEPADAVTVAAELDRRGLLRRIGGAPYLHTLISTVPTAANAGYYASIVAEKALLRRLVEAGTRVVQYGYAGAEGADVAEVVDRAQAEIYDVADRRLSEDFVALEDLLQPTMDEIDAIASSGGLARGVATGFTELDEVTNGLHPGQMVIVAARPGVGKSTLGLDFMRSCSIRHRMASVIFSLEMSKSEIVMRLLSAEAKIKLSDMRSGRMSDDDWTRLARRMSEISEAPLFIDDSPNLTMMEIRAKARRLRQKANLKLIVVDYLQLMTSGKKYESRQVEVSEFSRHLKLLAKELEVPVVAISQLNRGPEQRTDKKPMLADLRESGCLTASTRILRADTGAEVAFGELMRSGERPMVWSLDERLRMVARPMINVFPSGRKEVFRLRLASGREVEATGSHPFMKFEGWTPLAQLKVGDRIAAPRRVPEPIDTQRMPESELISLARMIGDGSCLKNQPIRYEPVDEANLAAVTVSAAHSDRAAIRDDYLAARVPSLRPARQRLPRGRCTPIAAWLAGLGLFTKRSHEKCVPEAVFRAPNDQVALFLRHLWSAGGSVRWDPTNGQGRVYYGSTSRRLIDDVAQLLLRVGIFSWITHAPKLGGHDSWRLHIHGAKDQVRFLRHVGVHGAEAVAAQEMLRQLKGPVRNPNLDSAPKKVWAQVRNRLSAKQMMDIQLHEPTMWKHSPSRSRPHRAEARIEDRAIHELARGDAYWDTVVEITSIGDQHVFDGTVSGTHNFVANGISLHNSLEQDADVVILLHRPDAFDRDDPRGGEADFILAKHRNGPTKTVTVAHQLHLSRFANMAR

[8] = A cytotoxicity screen of small molecule inhibitors of the PhoP region in Salmonella typhi identified in the primary screen. [Related pubchem assays: 1850, 1864, 1985 ]; assay type: functional
Troponin, cardiac muscle = Troponin, cardiac muscle (Homo sapiens, UniProt P19429+P45379+P63316); assay: Fluorescence-based biochemical high throughput dose response assay for activators of the calcium sensitivity of cardiac Regulated Thin Filaments (RTF). [Related pubchem assays (depositor defined):AID493008, AID493018, AID504382, AID504383]; assay type: protein-complex assay
Vero = assay: cells; assay type: functional; conditions: Chlorocebus sabaeus
[9] = HEp-2 cell cytotoxicity, dose response, cytotoxicity control for RSV inhibitor project, HTS (AID 2410); assay type: functional; conditions: human respiratory syncytial virus
[10] = target: Eukaryotic translation initiation factor 4E (Mus musculus, UniProt P63073); assay: eIF4E–eIF4G protein interaction inhibitors, dose response, biochemical, TR-FRET (AID 855); assay type: functional;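 further: potency for disrupting eIF4E binding to eIF4GI seen as loss of FRET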
[11] = THP-1 cell cytotoxicity, dose response, cytotoxicity control for Vif-APOBEC3G degradation inhibitor project, THP-1 cells (AID 1117359); assay type: functional; conditions: Human immunodeficiency virus 1, THP-1
[12] = target: Heat shock protein HSP 90-alpha (Homo sapiens, UniProt P07900); assay type: functional, organism-based
Protein skinhead-1 = target: T4, Protein skinhead-1 (Caenorhabditis elegans, UniProt P34707); assay type: functional
T4 sequence (P34707 whole entry): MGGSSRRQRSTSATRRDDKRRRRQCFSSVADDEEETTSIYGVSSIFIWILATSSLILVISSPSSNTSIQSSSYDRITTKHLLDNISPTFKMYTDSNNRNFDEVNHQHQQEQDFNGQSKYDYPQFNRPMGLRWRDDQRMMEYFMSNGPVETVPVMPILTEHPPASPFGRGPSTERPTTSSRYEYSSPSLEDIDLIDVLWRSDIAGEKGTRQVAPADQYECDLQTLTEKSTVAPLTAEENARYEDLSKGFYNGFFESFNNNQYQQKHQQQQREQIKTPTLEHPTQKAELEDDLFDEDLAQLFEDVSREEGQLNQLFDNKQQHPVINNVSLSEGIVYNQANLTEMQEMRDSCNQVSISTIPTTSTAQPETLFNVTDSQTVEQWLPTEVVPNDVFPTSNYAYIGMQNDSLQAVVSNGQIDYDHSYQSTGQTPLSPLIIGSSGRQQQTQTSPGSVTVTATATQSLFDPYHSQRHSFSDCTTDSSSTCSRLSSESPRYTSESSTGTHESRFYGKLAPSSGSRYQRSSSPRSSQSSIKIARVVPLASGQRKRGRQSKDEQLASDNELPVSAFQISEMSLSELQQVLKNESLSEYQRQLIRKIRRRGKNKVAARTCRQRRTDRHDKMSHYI

## CC(=O)c1c(C)[nH]c(C(=O)CSc2nnc3ccccn23)c1C
Escherichia coli
  AC50: 27 µM (active)

## NC(=O)CC(NC(=O)Cc1ccc(Br)cc1)c1ccc(N2CCC(Br)CC2)c([N+](=O)[O-])c1 (stereo unspecified)
SUMO-activating enzyme [1]
  IC50: 34.5 µM (active)
SUMO-activating enzyme [2]
  IC50: 28.3 µM (active)

## C[C@H]1CN(C2=C(Cl)C(=O)N(c3ccc(C(F)(F)F)cc3)C2=O)CCN1
[3]
  IC50: > 50 µM (inconclusive)

## COC(=O)C(C)Oc1cc(C)cc2oc(=O)c3c(c12)CCC3 (stereo unspecified)
[4]
  IC50: > 80 µM (inactive)

## O=C(COC(=O)c1ccc(O)cc1O)c1ccc2c(c1)OCO2
cells
  IC50: 18.2 µM (active)

## Cc1cc(C)c2nc(NC(=O)[C@@H](NC(=O)c3cccc(S(=O)(=O)N4CCOCC4)c3)C(C)C)sc2c1
[4]
  IC50: > 80 µM (inactive)

## N=c1c(C(=O)NC2CCCC2)cc2c(=O)n3ccccc3nc2n1CCN1CCOCC1
[4]
  IC50: > 80 µM (inactive)

## CC(C)c1n[nH]c2c1C(c1ccco1)C(C#N)=C(N)O2 (stereo unspecified)
[5]
  EC50: > 120 µM (not active)
[4]
  IC50: > 80 µM (inactive)
Protein RecA
  EC50: 3.05 µM (active)
H4
  EC50: 92.5 µM (active)
[6]
  EC50: > 120 µM (not active)
[7]
  AC50: 32.4 µM (active)

## O=C(CCNS(=O)(=O)c1cccc2nonc12)N1CCN(c2cccc(Cl)c2)CC1
[8]
  EC50: > 50 µM (active)

## O=C(Nc1ccccc1)NC1CS(=O)(=O)CC1O (stereo unspecified)
Troponin, cardiac muscle
  EC50: > 71.5 µM (inactive)

## CCOc1ccccc1NC(=O)Nc1ccncc1
[8]
  EC50: > 50 µM (active)

## O=C(Cc1ccc(F)cc1)NC1CCCC1
[8]
  EC50: > 50 µM (active)

## CC(C)(C)Nc1c2ccccc2nc2ccccc12
[8]
  EC50: > 50 µM (active)

## O=C(NC1CC1)c1ccc(N2CCCCC2)c([N+](=O)[O-])c1
Escherichia coli
  AC50: 73.1 µM (active)

## Cc1cs/c(=N\c2cccnc2)n1CC1CCCCC1
cells
  IC50: > 50 µM (active)

## O=C(Nc1ccc2c(c1)OCCO2)C1CCCN(S(=O)(=O)c2cccnc2)C1 (stereo unspecified)
Escherichia coli
  AC50: 52.7 µM (active)

## Cc1nc([N+](=O)[O-])c(Sc2nc3ccccc3n2C)n1Cc1ccccc1
Vero
  CC50: 20.8 µM (active)
[9]
  CC50: 13.5 µM (active)

## O=C(CSC1=NS(=O)(=O)c2ccccc2N1)N1CCCCC1
Troponin, cardiac muscle
  EC50: > 71.5 µM (inactive)

## O=C1C(Cl)=C(N2CCN(Cc3ccc4c(c3)OCO4)CC2)C(=O)N1c1ccc(Cl)nc1
[3]
  IC50: > 50 µM (inconclusive)

## COc1ccc(-c2nc3ccc(C)cc3c(=O)o2)cc1OC
cells
  IC50: 7.49 µM (active)

## COc1ccc(-c2[nH]ncc2CNC(C)c2ccccc2Cl)cc1F (stereo unspecified)
Vero
  CC50: > 25 µM (active)

## NC(=O)NC(=O)COC(=O)c1cccc(NS(=O)(=O)/C=C/c2ccccc2)c1
Troponin, cardiac muscle
  EC50: > 71.5 µM (inactive)
[10]
  IC50: 50 µM (inactive)

## N#C/C(=C\c1ccc([N+](=O)[O-])o1)C(=O)Nc1ccc(F)cc1
[11]
  CC50: > 40 µM (active)
[12]
  AC50: 0.444 µM (active)

## CCN(CC)CCOC(=O)c1ccc(NC(=O)CCCN2C(=O)S/C(=C/c3ccc(OC)cc3)C2=S)cc1
[4]
  IC50: > 80 µM (inactive)

## N#Cc1ccc(S(=O)(=O)NC2CCCCNC2=O)cc1 (stereo unspecified)
Troponin, cardiac muscle
  EC50: > 71.4 µM (inactive)

## O=[N+]([O-])c1ccc2nc(-c3ccccc3)oc2c1
[11]
  CC50: > 40 µM (active)
Protein skinhead-1
  IC50: 63.6 µM (inactive)
